Assay results taken from paper PMC6353796, “Thermostable Branched-Chain Amino Acid Transaminases From the Archaea Geoglobus acetivorans and Archaeoglobus fulgidus: Biochemical and Structural Characterization” (Frontiers in Bioengineering and Biotechnology, 2019).
Values belong to the molecule of their own block, whether it stands above or below them.

Tests used:
Type in all cases: binding
GEO1900 [1] = target: T1, GEO1900 (Geoglobus acetivorans, UniProt A0A0A7GJ30); assay: X-ray crystal structure, […] Å; conditions: covalent internal aldimine with Lys152
T1 construct: gene ilvE; mainly homodimer in solution, hexamer in crystal; catalytic Lys152

AF0933 [2] = target: T2, AF0933 (Archaeoglobus fulgidus, UniProt O29329); assay: X-ray crystal structure, […] Å; conditions: covalent internal aldimine with Lys150
T2 construct: gene ilvE; His-tagged (pLATE51, E. coli Rosetta (DE3)-pLysS); homohexamer in solution; catalytic Lys150
T2 sequence (O29329 1-290): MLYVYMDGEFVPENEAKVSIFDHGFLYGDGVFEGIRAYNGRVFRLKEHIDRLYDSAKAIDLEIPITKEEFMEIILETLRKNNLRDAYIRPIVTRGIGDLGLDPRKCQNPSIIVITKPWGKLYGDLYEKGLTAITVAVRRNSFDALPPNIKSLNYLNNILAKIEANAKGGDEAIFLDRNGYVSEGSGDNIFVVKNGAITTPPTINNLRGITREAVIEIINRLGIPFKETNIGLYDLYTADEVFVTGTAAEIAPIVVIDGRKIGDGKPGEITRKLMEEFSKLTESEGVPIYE

AF0933 [3] = target: T2, AF0933; assay: X-ray crystal structure, […] Å, co-crystallization; conditions: 5 mM gabaculine; covalent adduct with PLP, irreversible; partial occupancy, absent in subunit F
GEO1900 [4] = target: T1, GEO1900; assay: X-ray crystal structure, […] Å, soak; conditions: 50 mM AKG soak; unproductive complex with holoenzyme; active site of subunit A only

T1 sequence (A0A0A7GJ30 entry or part of it): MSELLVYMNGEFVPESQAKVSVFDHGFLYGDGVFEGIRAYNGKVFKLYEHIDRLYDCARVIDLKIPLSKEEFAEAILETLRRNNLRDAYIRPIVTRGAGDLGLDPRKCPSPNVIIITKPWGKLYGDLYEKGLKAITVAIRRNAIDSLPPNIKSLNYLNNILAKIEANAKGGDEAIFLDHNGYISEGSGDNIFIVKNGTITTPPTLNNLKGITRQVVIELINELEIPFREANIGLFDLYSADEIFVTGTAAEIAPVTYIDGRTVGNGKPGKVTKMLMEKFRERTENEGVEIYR

SMILES: Cc1ncc(COP(=O)(O)O)c(C=O)c1O [pyridoxal 5′-phosphate]
X-ray crystal structure, 1.9 Å (GEO1900 [1]): A PLP molecule is covalently bound to the catalytic Lys152 in the GEO1900 active site | X-ray crystal structure, 2.1 Å (AF0933 [2]): A PLP molecule is covalently bound to the catalytic Lys152 in the GEO1900 active site (Lys150

SMILES: N[C@@H]1C=CC=C(C(=O)O)C1 [gabaculine]
X-ray crystal structure, 2.0 Å, co-crystallization (AF0933 [3]): AF0933 complexed with gabaculine 5MR0

X-ray crystal structure, 2.2 Å, soak (GEO1900 [4]): GEO1900 complexed with AKG 5E25
SMILES: O=C(O)CCC(=O)C(=O)O [α-ketoglutarate]
